Assay results: US20250121068A1, “BIFUNCTIONAL MOLECULES AS PROTEASOME STIMULATORS FOR IMPROVED TARGETED PROTEIN DEGRADATION, AND THEIR USES AS TARGETED BOOSTING DEGRADERS (TARBODS)” (BOOSTER THERAPEUTICS GMBH, priority 2021, published 2025)

How the values were obtained:
a-synuclein = target: T1, a-synuclein (Homo sapiens, UniProt P37840); assay: a-synuclein degradation in HEK293 cells (western blot); assay type: cell-based; settings: a-synuclein transfection 48 h, dosed 3 h at 25 μM with 50 μM cycloheximide, compared to DMSO and MO
T1 construct: expressed in transfected cells; host or cells: HEK293
Protocol: After a-synuclein transfection for 48 h, the compounds were dosed for 3 h at 25 μM together with 50 μM cycloheximide, and the total a-synuclein was determined using western blot. DMSO samples were used as control (dashed line).
FIGS. 2 to 4 show the results of the functional assay for the compounds of group I, FIG. 2 based on proteasome stimulation in vitro. The biochemical assay was performed with a purified human 20S proteasome. The compounds were incubated with 20S proteasomes for 1 h, and the proteasome activity was measured with a TAS-1 probe. DMSO samples were used as control. […] The inventive compounds are better stimulators than the activator alone (MO), especially when they have a longer linker, e.g. (PEG)4-5.

tau = tau degradation in HEK293 cells (western blot); assay type: cell-based; settings: tau transfection 48 h, dosed 16 h at 25 μM with 30 μM cycloheximide, DMSO control
Protocol: After tau transfection for 48 h, the compounds were dosed for 16 h at 25 μM together with 30 μM cycloheximide, and total tau was determined (western blot). DMSO samples were used as control (dashed line).
The biochemical assay was performed with a purified human 20S proteasome. The compounds were incubated with 20S proteasomes for 1 h, and the proteasome activity was measured with a TAS-1 probe. DMSO samples were used as control (dashed line). The inventive compounds are better stimulators than the activator alone (MO), especially when they have a longer linker, e.g., (PEG)4-5. […] For proteasome activity in HEK293 cells, the compounds were dosed for 1.5 h, and the proteasome activity measured with Me4BodipyFLAhx3L3VS activity probe. DMSO samples were used as control (dashed line). […] Compounds were dosed for 24 h, and the viability measured with CellTiter-Glo. DMSO samples were used as control (dashed line). […] After tau transfection for 48 h, the compounds were dosed for 16 h at 25 μM together with 30 μM cycloheximide, and total tau was determined (western blot). DMSO samples were used as control (dashed line).

| Structure (SMILES) | a-synuclein degradation (total a-synuclein) (a-synuclein) | tau degradation (total tau) (tau) |
| --- | --- | --- |
| CNc1ccc(-c2nc3ccc(OCCOCCNC(=O)c4ccc(COC(Cn5ccnc5)c5ccc(Cl)cc5Cl)cc4)cc3s2)cc1 (stereo not drawn) [DS001, 4-((1-(2,4-dichlorophenyl)-2-(1H-imidazol-1-yl)ethoxy)methyl)-N-(2-(2-((2-(4-(methylamino)phenyl)benzo[d]thiazol-6-yl)oxy)ethoxy)ethyl)benzamide] | clear improvement in degrading a-synuclein | – |
| CNc1ccc(-c2nc3ccc(OCCOCCOCCOCCNC(=O)c4ccc(COC(Cn5ccnc5)c5ccc(Cl)cc5Cl)cc4)cc3s2)cc1 (stereo not drawn) [DS003, 4-((1-(2,4-dichlorophenyl)-2-(1H-imidazol-1-yl)ethoxy)methyl)-N-(2-(2-(2-(2-((2-(4-(methylamino)phenyl)benzo[d]thiazol-6-yl)oxy)ethoxy)ethoxy)ethoxy)ethyl)benzamide] | clear improvement in degrading a-synuclein | – |
| O=C(CCc1ccc2c(c1)[nH]c1ccncc12)NCCOCCNC(=O)c1ccc(COC(Cn2ccnc2)c2ccc(Cl)cc2Cl)cc1 (stereo not drawn) [DT-001, N-(2-(2-(3-(5H-pyrido[4,3-b]indol-7-yl)propanamido)ethoxy)ethyl)-4-((1-(2,4-dichlorophenyl)-2-(1H-imidazol-1-yl)ethoxy)methyl)benzamide] | – | clear tau degradation improvement |
